Experiments:
[1] = tested on: deep partial-thickness excisional wounds; experiment: Porcine deep partial-thickness excisional wound model; assay type: in vivo, red Duroc pigs
Experimental: Porcine deep partial-thickness excisional wound model: Prior to operation, animals were administered oral amoxicillin 10 mg/kg for 24 hours. General anesthesia was administered by Veterinary Services personnel and was established with intramuscular telazol 6-8 mg/kg, administered once as a pre-anesthetic. Animals were then intubated using an endotracheal tube and maintained on 1.5-3% of inhaled isoflurane throughout the procedure. The hair on the back was clipped and skin was cleansed initially with Betadine© solution following by a 70% alcohol rinse. Excisional wounds were created with a standard electric Zimmer dermatome (Zimmer Biomet, Warsaw, Ind.). Up to eight wounds, approximately 5 cm×5 cm in size, were created on each lateral flank, with 3-5 cm intervals between wounds (FIG. 1A). Multiple dermatome passes were performed to create deep partial-thickness wounds of uniform 0.07 inch depth. The wounds were randomly assigned to receive either FAKI hydrogel (W_IF), blank hydrogel (‘placebo’, W_H), or no hydrogel (wounded control, W) (n=6-9 wounds per condition). Animals were given oral amoxicillin 10 mg/kg post-operatively twice a day for 5 days total. Wound dressings, including FAKI hydrogel patches, were changed every other day for the first three weeks after initial injury until POD 21 (FIG. 1C). Thereafter, dressings were changed twice per week until POD 90. Animals were subject to short-term sedation for each dressing change. The actual dose delivered to the wound was tested on porcine fresh wounds (red Duroc pigs). In a time-dependent study, the amount of VS-6062 detected at approximately 0.5 mm wound depth over 24 hours ranged from 30-100 microG/g tissue by weight. The amount of VS-6062 detected beyond 1 mm wound depth was less than 5 microG/g tissue. Wound closure, visual scar assessment, and viscoelastic analyses. Wounds were monitored photographically at each dressing change. Days to wound closure, defined as complete re-epithelialization without open wound area, were determined for each wound based on gross photographic assessment. Quantification of scar metrics were performed using a Visual Analog Scale (VAS) for 5 components (vascularity, pigmentation, observer comfort, acceptability, and contour) by a panel of four blinded scar experts. Total scores are calculated as a composite of all 5 scores; lower scores indicate improved scar appearance. A Cutometer (Dual MPA 580, Courage+Khazaka Electronic, Köln, Germany) was used to evaluate the firmness and elasticity of the healing wounds at POD 60. The cutometer measures the vertical deformation of the skin surface by applying a negative pressure (suction) through a small circular diameter (2 mm probe). Cutometer assessment is the gold standard to measure viscoelasticity in human patients. Deformation (suction) for two seconds followed by two seconds of relaxation (no suction) is applied for three cycles. The elasticity ratio (ability for tissue to return back to original setpoint) was measured during the relaxation period (R2 metric). Histological and immunofluorescent staining. […] Masson's Trichrome staining and Picrosirius Red staining were performed. Picrosirius Red-stained images were captured using polarized light microscopy (Leica DM5000 B upright microscope). Collagen fibers were also visualized using Second Harmonic Generation (SHG) on a Leica SP5 upright confocal multi-photon microscope using a […]. SHG images were captured with an excitation wavelength of 860 nm, a pulse length of approximately 100 fs, and an emission filter centered at 445 nm with a 20-nm bandwidth. Forward SHG was used to image fibroblasts and backward SHG was used to image in vivo tissue sections. Analysis of fiber alignment was performed on Picrosirius Red-stained images at 40× magnification using the custom software MatFiber, an intensity-gradient-detection algorithm for analysis of overall alignment of collagen fibers and stress fibers from multiple samples. […]

[2] = Dose of VS-6062 delivered to porcine fresh wounds (tissue level by wound depth); assay type: in vivo, red Duroc pigs
Experimental: Porcine deep partial-thickness excisional wound model: Prior to operation, animals were administered oral amoxicillin 10 mg/kg for 24 hours. General anesthesia was administered by Veterinary Services personnel and was established with intramuscular telazol 6-8 mg/kg, administered once as a pre-anesthetic. Animals were then intubated using an endotracheal tube and maintained on 1.5-3% of inhaled isoflurane throughout the procedure. The hair on the back was clipped and skin was cleansed initially with Betadine© solution following by a 70% alcohol rinse. Excisional wounds were created with a standard electric Zimmer dermatome (Zimmer Biomet, Warsaw, Ind.). Up to eight wounds, approximately 5 cm×5 cm in size, were created on each lateral flank, with 3-5 cm intervals between wounds (FIG. 1A). Multiple dermatome passes were performed to create deep partial-thickness wounds of uniform 0.07 inch depth. The wounds were randomly assigned to receive either FAKI hydrogel (W_IF), blank hydrogel (‘placebo’, W_H), or no hydrogel (wounded control, W) (n=6-9 wounds per condition). […] In a time-dependent study, the amount of VS-6062 detected at approximately 0.5 mm wound depth over 24 hours ranged from 30-100 microG/g tissue by weight. The amount of VS-6062 detected beyond 1 mm wound depth was less than 5 microG/g tissue.

[3] = Systemic penetration of topically applied FAKI (mass spectrometry of peripheral blood); assay type: in vivo, pig; conditions: topical, approximately 7-10% of total body surface area, three pigs
Experimental: FIG. 6B. Acute, systemic, and implantation toxicity testing of FAKI hydrogel in the porcine model. Mass spectrometry of peripheral blood samples of FAKI-treated pigs was performed to assess systemic penetration of topically applied FAKI covering approximately 7-10% of the total body surface area relative to serum FAKI levels after oral administration of FAKI from a human study. Serum FAKI concentrations via localized delivery were negligible in three independent experiments collected from three different pigs.

[4] = POD 60, versus untreated wounds
[5] = porcine wound tissue, treated vs untreated

## CN(c1ncccc1CNc1nc(Nc2ccc3c(c2)CC(=O)N3)ncc1C(F)(F)F)S(C)(=O)=O [VS-6062]
[1]; Masson's Trichrome, POD 90 and POD 180
  regeneration of secondary structures (hair follicles, cutaneous glands): regrowth of hair follicles and other cutaneous glands
[1]; [4]
  wound elasticity (cutometer): increased elasticity
  wound firmness (cutometer): decreased firmness
[1]; POD 90, deep dermal layer
  intradermal adipocytes (Perilipin A staining): regeneration of Perilipin A-positive intradermal adipocytes
[1]; controls healed after POD 24
  healing earlier than wounds treated with standard dressings or empty hydrogels: more than 10 days
[1]; difference in scarring evident as early as POD 40
  gross appearance of the treated wounds: normal appearing skin
[1]; pig, in vivo
  collagen structure of healed wounds (Picrosirius Red): basket weave-like collagen structure characteristic to unwounded porcine skin
[1]; [5]
  protein expression of Collagen I (immunofluorescence): decreased
  protein expression of Collagen III (immunofluorescence): decreased
  protein expression of MMP1 (immunofluorescence): increased
  protein expression of MMP3 (immunofluorescence): increased
  protein expression of alpha SMA (immunofluorescence): decreased
[1]; sustained release hydrogel scaffold, 5x5 cm wounds
  time at which wounds were fully healed: 14±2.3 postoperative day (POD)
[1]; trend
  CT-FIRE fiber count: return number of fibers closer to unwounded skin
[2]; approximately 0.5 mm wound depth, over 24 hours
  amount of VS-6062 detected in wound tissue: 30-100 microG/g tissue by weight
[2]; beyond 1 mm wound depth
  amount of VS-6062 detected in wound tissue: less than 5 microG/g tissue
[3]
  serum FAKI concentrations via localized delivery: negligible

Source: patent US20230121926A1, “METHODS FOR TISSUE REGENERATION AND KITS THEREFOR” (THE BOARD OF TRUSTEES OF THE LELAND STANFORD JUNIOR …, priority 2020, published 2023)
